According to article PMC7707423 (Acta biomaterialia, 2017):

How the values were obtained:
type II collagen = assay: Immunohistochemistry of constructs for type II collagen; format: cell-based, Bos taurus; conditions: particularly at higher concentrations of KPLHALL
IGF-I [1] = assay: Immunohistochemistry / retention of IGF-I in chondrocyte constructs; format: cell-based, Bos taurus; conditions: 100 μM of binding sites
chondrocytes [2] = assay: Hydroxyproline; format: cell-based, Bos taurus; conditions: 10, 33 and 100 μM binding sites; p<0.001 by 2-way ANOVA
chondrocytes [3] = assay: GAG synthesis by encapsulated chondrocytes; format: cell-based, Bos taurus; conditions: control (empty vector) chondrocytes; 0-100 μM KPLHALL, 30 days
IGF-I [4] = target: IGF-I (Homo sapiens, UniProt P05019); assay: Surface plasmon resonance, IGF-I binding to alginate materials; conditions: SPR
[5] = target: mini-IGFBP-5 binding pocket (Homo sapiens) (UniProt P24593); conditions: cited from earlier work
IGFBP-5 (Homo sapiens) = IGFBP-5 (Homo sapiens) (UniProt P24593); conditions: cited from earlier work
Sequence of IGFBP-5 (Homo sapiens) (P24593 21-272): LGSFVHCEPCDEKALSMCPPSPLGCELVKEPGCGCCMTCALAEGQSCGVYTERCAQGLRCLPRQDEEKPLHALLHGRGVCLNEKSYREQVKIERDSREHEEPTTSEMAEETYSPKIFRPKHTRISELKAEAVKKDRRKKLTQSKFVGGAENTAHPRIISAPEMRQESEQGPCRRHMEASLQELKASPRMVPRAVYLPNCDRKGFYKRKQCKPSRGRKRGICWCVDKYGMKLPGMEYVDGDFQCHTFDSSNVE

Sequence of IGF-I (Homo sapiens, UniProt P05019) (P05019 49-118 limits assumed): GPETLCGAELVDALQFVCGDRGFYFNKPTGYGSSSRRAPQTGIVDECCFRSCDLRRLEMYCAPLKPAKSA
Sequence of IGF-I (from UniProt P05019) (P05019 49-118): as the sequence (P05019 49-118 limits assumed) above
Sequence of mini-IGFBP-5 binding pocket (Homo sapiens) (P24593 60-112): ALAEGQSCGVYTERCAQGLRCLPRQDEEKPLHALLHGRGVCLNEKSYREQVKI

Substance	type II collagen immunostaining at day 30 (type II collagen)	IGF-I immunostaining at day 30 (IGF-I [1])	effect on HYPRO of binding-site concentration (chondrocytes [2])	GAG synthesis enhancement (maximum of steady state, normalized to alginate 0 μM) (chondrocytes [3])	KD shift of KPLHALL alginate compared to alginate (IGF-I [4]; KD 50 nM vs 513 nM)	enhancement of binding affinity for IGF-I by KPLHALL modification (IGF-I [4]; vs unmodified alginate)	Kd [5]	Kd (IGFBP-5 (Homo sapiens))
GGG-KPLALL (KPLHALL) [KPLHALL alginate]	robust staining for type II collagen	highest immunolocalization of IGF-I	greater in concentrations of 10, 33 and 100 μM binding sites	1.6 fold	10 times	more than 10 fold	–	–
IGF-I (from UniProt P05019)	–	–	–	–	–	–	37 nM	3.7 nM
